Experimental data reported in patent US9322066B2, “Predictors for cancer treatment” (priority 2011, dated 2016).

Tested on: relapsed or refractory, rituximab-naive or -sensitive follicular B-cell NHL
Test: Treatment free interval, Vc-R vs rituximab study, by biomarker
Format: in vivo, human
Set-up: Treatment Free Interval, Median: unit not given here
Description: Non-Hodgkin lymphoma (NHL) encompasses several unique malignant lymphoid disease entities that vary in clinical behavior, morphologic appearance, immunologic, and molecular phenotype. […] A randomized, open-label, active-controlled, multicenter, multinational, prospective study to compare the efficacy and safety of the combination of bortezomib and rituximab (Vc-R) to single-agent rituximab in subjects who have relapsed or refractory, rituximab-naive or -sensitive follicular B-cell NHL was performed.
Subjects were centrally randomized to Treatment Groups A (Vc-R) or B (rituximab) in a 1:1 ratio taking into account the following stratification factors: • Follicular Lymphoma International Prognostic Index (FLIPI) score (low [0 or 1 factor], intermediate [2 factors], high [≧3 factors]); • Prior rituximab therapy (yes, no); • Time since last dose of anti-lymphoma therapy (≦1 year, >1 year); • Region (United States/Canada, European Union, Rest of World).
The following clinical endpoints were included in the analysis within each treatment group and an overall comparison was made with the biomarker-related endpoints: Progression-free survival, defined as the interval between the date of randomization and the date of progressive disease (PD) or death, whichever is first reported in the ITT population; overall survival; overall response rate (complete response [CR]+CR unconfirmed [CRu]+partial response [PR]); overall CR rate (CR+CRu); duration of response; time to next anti-lymphoma therapy; and treatment free interval.

[1] = P65 % NUCLEAR STAINING: 0, 1 Prior Line of Therapy, IRC Review
[2] = P65 % NUCLEAR STAINING: ≦5%, 2 Prior Lines of Therapy, IRC Review
[3] = P65 % NUCLEAR STAINING: ≦5%, 5 Prior Lines of Therapy, IRC Review
[4] = P65 % NUCLEAR STAINING: ≦5%, Prior Rituximab Therapy, IRC Review
[5] = P65 % NUCLEAR STAINING: ≦5%, ≦65 years old, IRC Review
[6] = P65 % POSITIVE CYTOPLASMIC SIGNAL: >90%, 1 Prior Line of Therapy, IRC Review
[7] = P65 % POSITIVE CYTOPLASMIC SIGNAL: >90%, No Subgroup, IRC Review
[8] = P65 % POSITIVE CYTOPLASMIC SIGNAL: >90%, White, IRC Review
[9] = P65 % POSITIVE CYTOPLASMIC SIGNAL: >90%, ≦65 years old, IRC Review
[10] = P65 INTENSITY CYTOPLASMIC SIGNAL: ≦1+, Ann Arbor Stage III, IRC Review
[11] = P65 INTENSITY CYTOPLASMIC SIGNAL: ≧2+, 1 Prior Line of Therapy, IRC Review
[12] = P65 INTENSITY CYTOPLASMIC SIGNAL: ≧2+, ≦65 years old, IRC Review
[13] = PSMB1/A171S: G/G, >1 year since last anti-lymphoma treatment, IRC Review
[14] = PSMB1/A171S: G/G, No Subgroup, IRC Review
[15] = PSMB1/A171S: G/G, ≦65 years old, IRC review
[16] = PSMB1/I208N: T/T, >1 year since last anti-lymphoma treatment, IRC Review
[17] = PSMB1/I208N: T/T, No Subgroup, IRC Review
[18] = PSMB1/I208N: T/T, ≦65 years old, IRC review
[19] = PSMB1/P11A: C/G, European Union, IRC Review
[20] = PSMB1/P11A: C/G, No Subgroup, IRC Review
[21] = PSMB1/P11A: C/G, ≦65 years old, IRC review
[22] = PSMB1/P11A: G/G, ≦65 years old, IRC Review
[23] = PSMB1/P193L: C/C, >1 year since last anti-lymphoma treatment, IRC Review
[24] = PSMB1/P193L: C/C, ≦65 years old, IRC review
[25] = PSMB2/E49X: G/G, >1 year since last anti-lymphoma treatment, IRC Review
[26] = PSMB2/E49X: G/G, ≦65 years old, IRC review
[27] = PSMB2/G187V: G/G, >1 year since last anti-lymphoma treatment, IRC Review
[28] = PSMB2/G187V: G/G, ≦65 years old, IRC review
[29] = PSMB2/L159F: C/C, >1 year since last anti-lymphoma treatment, IRC Review
[30] = PSMB2/L159F: C/C, ≦65 years old, IRC review
[31] = PSMB5/L206M: C/C, >1 year since last anti-lymphoma treatment, IRC Review
[32] = PSMB5/L206M: C/C, ≦65 years old, IRC review
[33] = PSMB5/R24C: C/C, >1 year since last anti-lymphoma treatment, IRC Review
[34] = PSMB5/R24C: C/C, ≦65 years old, IRC review
[35] = PSMB6/A234D: C/C, >1 year since last anti-lymphoma treatment, IRC Review
[36] = PSMB6/A234D: C/C, ≦65 years old, IRC review
[37] = PSMB6/P107A: C/C, >1 year since last anti-lymphoma treatment, IRC Review
[38] = PSMB6/P107A: C/C, ≦65 years old, IRC review
[39] = PSMB8/G8R: G/G, >1 year since last anti-lymphoma treatment, IRC Review
[40] = PSMB8/G8R: G/G, ≦65 years old, IRC review
[41] = PSMB8/R141C: C/C, >1 year since last anti-lymphoma treatment, IRC Review
[42] = PSMB8/R141C: C/C, ≦65 years old, IRC review
[43] = PSMB8/V182M: G/G, >1 year since last anti-lymphoma treatment, IRC review
[44] = PSMB8/V182M: G/G, ≦65 years old, IRC review
[45] = PSMB9/G9E: G/G, >1 year since last anti-lymphoma treatment, IRC review
[46] = PSMB9/G9E: G/G, ≦65 years old, IRC review
[47] = PSMB9/V32I: C/C, >1 year since last anti-lymphoma treatment, IRC review
[48] = PSMB9/V32I: C/C, High Tumor Burden, IRC Review
[49] = PSMB9/V32I: C/C, ≦65 years old, IRC review

For rituximab, the “Treatment Free Interval, Median” value (P27 SIGNAL INTENSITY: ≧2+, Prior Rituximab Therapy, IRC Review) was 272, the “Treatment Free Interval, Evt/N” value [1] was 54/79 and the “Treatment Free Interval, Median” value [1] was 406. For the same substance, the “Treatment Free Interval, Evt/N” value [2] was 7/9, the “Treatment Free Interval, Median” value [2] was 85 and the “Treatment Free Interval, Evt/N” value [3] was 3/3. For the same substance, the “Treatment Free Interval, Median” value [3] was 95, the “Treatment Free Interval, Evt/N” value [4] was 16/21 and the “Treatment Free Interval, Median” value [4] was 93. For the same substance, the “Treatment Free Interval, Evt/N” value [5] was 19/29, the “Treatment Free Interval, Median” value [5] was 234 and the “Treatment Free Interval, Evt/N” value [6] was 59/89. For the same substance, the “Treatment Free Interval, Median” value [6] was 409, the “Treatment Free Interval, Evt/N” value [7] was 129/204 and the “Treatment Free Interval, Median” value [7] was 363. The “Treatment Free Interval, Evt/N” value [8] was 113/179, the “Treatment Free Interval, Median” value [8] was 363 and the “Treatment Free Interval, Evt/N” value [9] was 103/154. The “Treatment Free Interval, Median” value [9] was 343, the “Treatment Free Interval, Evt/N” value [10] was 10/11 and the “Treatment Free Interval, Median” value [10] was 119. The “Treatment Free Interval, Evt/N” value [11] was 54/85, the “Treatment Free Interval, Median” value [11] was 427 and the “Treatment Free Interval, Evt/N” value [12] was 101/152. For the same substance, the “Treatment Free Interval, Median” value [12] was 343, the “Treatment Free Interval, Evt/N” value [13] was 98/165 and the “Treatment Free Interval, Median” value [13] was 547. The “Treatment Free Interval, Evt/N” value [14] was 173/276, the “Treatment Free Interval, Median” value [14] was 406 and the “Treatment Free Interval, Evt/N” value [15] was 130/198. The “Treatment Free Interval, Median” value [15] was 344, the “Treatment Free Interval, Evt/N” value [16] was 98/165 and the “Treatment Free Interval, Median” value [16] was 547. The “Treatment Free Interval, Evt/N” value [17] was 173/276, the “Treatment Free Interval, Median” value [17] was 406 and the “Treatment Free Interval, Evt/N” value [18] was 130/198. The “Treatment Free Interval, Median” value [18] was 344, the “Treatment Free Interval, Evt/N” value [19] was 34/49 and the “Treatment Free Interval, Median” value [19] was 309. The “Treatment Free Interval, Median” value (PSMB1/P11A: C/G, Female, IRC Review) was 406, the “Treatment Free Interval, Evt/N” value [20] was 78/127 and the “Treatment Free Interval, Median” value [20] was 409. For the same substance, the “Treatment Free Interval, Evt/N” value [21] was 63/96, the “Treatment Free Interval, Median” value [21] was 406 and the “Treatment Free Interval, Evt/N” value [22] was 21/25. The “Treatment Free Interval, Median” value [22] was 269, the “Treatment Free Interval, Evt/N” value [23] was 98/165 and the “Treatment Free Interval, Median” value [23] was 547. For the same substance, the “Treatment Free Interval, Median” value (PSMB1/P193L: C/C, No Subgroup, IRC Review) was 406, the “Treatment Free Interval, Evt/N” value [24] was 130/198 and the “Treatment Free Interval, Median” value [24] was 344. For the same substance, the “Treatment Free Interval, Evt/N” value [25] was 98/165, the “Treatment Free Interval, Median” value [25] was 547 and the “Treatment Free Interval, Evt/N” value [26] was 130/198. The “Treatment Free Interval, Median” value [26] was 344, the “Treatment Free Interval, Evt/N” value [27] was 98/165 and the “Treatment Free Interval, Median” value [27] was 547. For the same substance, the “Treatment Free Interval, Evt/N” value [28] was 130/198, the “Treatment Free Interval, Median” value [28] was 344 and the “Treatment Free Interval, Evt/N” value [29] was 98/165. The “Treatment Free Interval, Median” value [29] was 547, the “Treatment Free Interval, Evt/N” value [30] was 130/198 and the “Treatment Free Interval, Median” value [30] was 344. The “Treatment Free Interval, Evt/N” value [31] was 98/165, the “Treatment Free Interval, Median” value [31] was 547 and the “Treatment Free Interval, Evt/N” value [32] was 130/198. The “Treatment Free Interval, Median” value [32] was 344, the “Treatment Free Interval, Evt/N” value [33] was 81/137 and the “Treatment Free Interval, Median” value [33] was 507. For the same substance, the “Treatment Free Interval, Evt/N” value [34] was 113/170, the “Treatment Free Interval, Median” value [34] was 344 and the “Treatment Free Interval, Evt/N” value [35] was 98/165. For the same substance, the “Treatment Free Interval, Median” value [35] was 547, the “Treatment Free Interval, Evt/N” value [36] was 130/198 and the “Treatment Free Interval, Median” value [36] was 344. The “Treatment Free Interval, Evt/N” value [37] was 95/159, the “Treatment Free Interval, Median” value [37] was 561 and the “Treatment Free Interval, Evt/N” value [38] was 125/189. For the same substance, the “Treatment Free Interval, Median” value [38] was 363, the “Treatment Free Interval, Evt/N” value [39] was 91/155 and the “Treatment Free Interval, Median” value [39] was 562. The “Treatment Free Interval, Evt/N” value [40] was 123/189, the “Treatment Free Interval, Median” value [40] was 344 and the “Treatment Free Interval, Evt/N” value [41] was 98/165. The “Treatment Free Interval, Median” value [41] was 547, the “Treatment Free Interval, Evt/N” value [42] was 130/198 and the “Treatment Free Interval, Median” value [42] was 344. The “Treatment Free Interval, Evt/N” value [43] was 98/165, the “Treatment Free Interval, Median” value [43] was 547 and the “Treatment Free Interval, Evt/N” value [44] was 130/198. For the same substance, the “Treatment Free Interval, Median” value [44] was 344, the “Treatment Free Interval, Evt/N” value [45] was 97/163 and the “Treatment Free Interval, Median” value [45] was 547. For the same substance, the “Treatment Free Interval, Evt/N” value [46] was 129/196, the “Treatment Free Interval, Median” value [46] was 344 and the “Treatment Free Interval, Evt/N” value [47] was 96/160. For the same substance, the “Treatment Free Interval, Median” value [47] was 507, the “Treatment Free Interval, Evt/N” value [48] was 106/142 and the “Treatment Free Interval, Median” value [48] was 234. For the same substance, the “Treatment Free Interval, Evt/N” value [49] was 127/192 and the “Treatment Free Interval, Median” value [49] was 344.
